One series has as its system HIV isolate (KP5mvcR). Nature of the series: microbe, parasite or virus in culture. The class given is cell-based, HIV-1. Particulars: for SI (selectivity index): CC50/IC50, TZM-bl cells, KP-5mvcR; for IC50: read-out: IC50 KP-5mvcR. An excerpt:
(§1) In this Example, TZM-bl cells (available from NIH AIDS Reagent Program (https://www.aidsreagent.org/Index.cfm)) were used for individual evaluations. TZM-bl cells have CD4/CCR5/CXCR4 on the surface and express luciferase when infected with HIV. In this manner, TZM-bl cells serve as indicator cells. In the cells, β-galactosidase gene linked to HIV-1 LTR sequence is integrated. When the cells are infected with HIV-1, the tat gene of HIV-1 expresses a transcriptional activator Tat, which acts on the promoter region of LTR to express β-galactosidase. When a substrate is added, enzymatic cleavage occurs to produce galactose and luciferin. Luciferin is oxidized by luciferase to generate chemiluminescence, which can be detected by a luminometer to determine the number of cells infected with HIV-1.
2) IC50 (Calculation of Anti-HIV Activity)
After each compound was serially diluted, TZM-bl cells (1×10^4) and 100TCID50 of HIV isolate (KP5mvcR) were added, and then, cultured for 48 hours. Thereafter, the cells were collected and a Luc reporter reagent was added. The amount of luminescence was measured to calculate the inhibition rate of infection (IC50). The HIV isolate (KP5mvcR) is an MVC resistant HIV clone, which was obtained by subjecting a clinical isolate KP-5 (YTA) to passage culture with PM1 CCR5 cells in the presence of MVC over 48 passages to obtain MVC resistant KP-5Env, which was inserted into NL43 vector (Yoshimura K, et al., J. Gen. Virol., 95, 1816-1826, 2014).

The nature of series [1]: Cytotoxicity (CC50) in TZM-bl cells, luminescence (CTG). Particulars: human. It counts as cell-based.
Source text: as §1, with “([…].org/Index.cfm))” for “(https://www.aidsreagent.org/Index.cfm))”, “HIV-1. […] After each compound was serially diluted, TZM-bl cells (1×10^4) were added, cultured for 48 hours and collected. A Luc reporter reagent was added and the amount of luminescence (reagent: CTG) was measured […].” for “HIV-1.”

A short description of series [2]: In vitro decomposition releasing the alkyl or PEG chain in PBS. It counts as physicochemical. The conditions noted are these: PBS of pH7.4 at 37° C. How it is done:
The compound obtained in Example 5 (YIS-527) has an alkyl chain bound to a side chain of YIR-821 via a —C(═O)O— group, and it is assumed that the compound is hydrolyzed in vitro and in vivo. Accordingly, in this Example, an alkyl chain released in vitro was measured.
With respect to compound (YIS-540) having a PEG chain bound to a side chain of YIR-821 via a —C(═O)O— group obtained in Example 6, the PEG chain released in vitro was measured in the same manner as in Example 7.

In another series the test system is TZM-bl cells. Nature of the series: Cytotoxicity (CC50) in TZM-bl cells, luminescence (CTG). It counts as cell-based. The conditions noted are these: TZM-bl cells, cultured for 48 hours.
Source text: as §1, with “([…].org/Index.cfm))” for “(https://www.aidsreagent.org/Index.cfm))”, “HIV-1. […] After each compound was serially diluted, TZM-bl cells (1×10^4) were added, cultured for 48 hours and collected. A Luc reporter reagent was added and the amount of luminescence (reagent: CTG) was measured […].” for “HIV-1.”

A short description of series [3]: Stability on incubation with human liver microsomes, HPLC. It counts as in vitro ADME. The conditions noted are these: 60 minutes at 37° C., NADPH, NaPB pH 7.4. Here is the method: More specifically, TKB-002 trifluoroacetate was dissolved in a 100 mM sodium phosphate buffer (NaPB, pH 7.4) to obtain a 0.3 mM solution. This solution (183 μL) was mixed with 20 mM NADPH (2 μL) in 100 mM NaPB (pH 7.4), and 5 μL of 20 mg/mL human liver microsome (Human Microsomes, 50 Donors (ThermoFisher Scientific, cat #: HMMCPL, Lot #: PL050E-A)) solution. After the mixture was pre-incubated at 37° C. for 5 minutes, 20 mM NADPH solution (10 μL) was added to the mixture, which was incubated while gently stirring for 60 minutes at 37° C.
Subsequently, 200 μL of ethyl acetate was added to the mixture to terminate the reaction. The mixture was stirred by a vortex mixer and centrifuged at 3,000 rpm for 5 minutes. The supernatant was filtered and ethyl acetate was removed with nitrogen gas.
To the mixture, 50 μL of MeCN containing 0.1% TFA was added and analysis was carried out by HPLC in the same conditions as in Reference Example 1 and Example 4.
A general note: Liver microsomes are vesicles of endoplasmic reticulum, rich in cytochrome P450 enzymes.

The nature of series [4]: Blood half-life after intravenous injection, blood concentration by HPLC. The class given is in vivo, Macaque monkey. Here is the method:
A Macaque monkey (MM616, body weight 8.00 kg) was intravenously injected with YIR-821 at a dose of 192 mg (10.1 mg/mL). A blood sample was taken from the monkey, 21, 39, 63, 91, 98, 113, 143, 201, 328 and 453 minutes later, and the concentration of YIR-821 in the blood was measured by HPLC.
HPLC conditions are as follows. • Measuring device: JASCO PU-2089 plus (JASCO Corporation, Ltd.) • Column: Cosmosil 5C18-ARII column (4.6×250 mm, Nacalai Tesque, Inc.) • Solvent A: H2O containing 0.1% (v/v) TFA • Solvent B: CH3CN containing 0.1% (v/v) TFA • Gradient: 20-50% solvent B in solvent A, 30 minutes • Flow rate: 1 cm^3/min • Detection: Detection at 260 nm-UV
In the same manner as in Reference Example 1, Macaque monkey (MM616, body weight 8.78 kg) was intravenously injected with TKB-002 trifluoroacetate obtained in Example 2 at a dose of 23.4 μmol (33.2 mg/20 mL). A blood sample was taken before, during and after administration (at a time point of 10 minutes, 37 minutes, 1 hour, 2.5 hours, 4.5 hours, 6.5 hours and 24 hours after administration). Blood concentration was measured by HPLC in the same conditions as in Reference Example 1.

[5] abbreviates: Human immunodeficiency virus 1, TZM-bl, 48 h.
Setting [6] is: TZM-bl cells, 100TCID50 of KP5mvcR, 48 hours.

Entries after “also recorded” stand apart in the source; their conditions may differ. Read-outs that look alike come from different tables or passages of the source.

Experimental findings from patent US12508251B2, “CD4 mimic compound with anti-HIV activity” (NATIONAL UNIVERSITY CORPORATION KUMAMOTO UNIVERSITY, priority 2019, dated 2025) are described below.

For the compound `COCCOCCOCCOCCOCCNC(=O)CCC(=O)N[C@@H](CCCNC(=N)N)C(=O)NCCN1CCC(NC(=O)C(=O)Nc2ccc(Cl)cc2)CC12CCCCC2` (stereo partly drawn) [TKB-001, N^1-((2S)-1-((2-(4-(2-((4-chlorophenyl)amino)-2-oxoacetamido)-1-azaspiro[5.5]undecan-1-yl)ethyl)amino)-5-guanidino-1-oxopentan-2-yl)-N4-(2,5,8,11,14-pentaoxahexadecan-16-yl)succinamide], the “SI (selectivity index)” value in the series on HIV isolate (KP5mvcR) is reported as more than 769. Moreover, the IC50 in the series on HIV isolate (KP5mvcR) (setting [5]) stood at 0.13 ± 0.026 µM. The compound also came in with a CC50 at 48 h in series [1] of more than 100 µM.
In the case of `COCCOCCOCCOCCOCCNC(=O)CCC(=O)OC(CCCNC(=N)N)C(=O)NCCN1CCC(NC(=O)C(=O)Nc2ccc(Cl)cc2)CC12CCCCC2` (stereo not drawn) [YIS-540, 1-((2-(4-(2-((4-chlorophenyl)amino)-2-oxoacetamido)-1-azaspiro[5.5]undecan-1-yl)ethyl)amino)-5-guanidino-1-oxopentan-2-yl 18-oxo-2,5,8,11,14-pentaoxa-17-azahenicosan-21-oate], in the series on HIV isolate (KP5mvcR), the “SI (selectivity index)” value is 6412. For the same compound, the IC50 with HIV isolate (KP5mvcR) (setting [5]) came to 0.017 ± 0.011 µM. This compound displayed a CC50 at 48 h in series [1] of 109 ± 8.2 µM. Also, the “decomposition releasing the alkyl or PEG chain” value in series [2] is “decomposition reaction was observed”.
Consider `CCCCCCCCCCCCCCCCNC(=O)CCC(=O)OC(CCCNC(=N)N)C(=O)NCCN1CCC(NC(=O)C(=O)Nc2ccc(Cl)cc2)CC12CCCCC2` (stereo not drawn) [YIS-527, 1-((2-(4-(2-((4-chlorophenyl)amino)-2-oxoacetamido)-1-azaspiro[5.5]undecan-1-yl)ethyl)amino)-5-guanidino-1-oxopentan-2-yl 4-(hexadecylamino)-4-oxobutanoate], for which the “SI (selectivity index)” value in the series with HIV isolate (KP5mvcR) stood at 14. The IC50 in the series on HIV isolate (KP5mvcR) (setting [5]) came to 1.2 ± 0.11 µM. The compound also showed a half-maximal cytotoxic concentration (CC50) at 48 h in series [1] of 17 ± 0.22 µM. In addition, in series [2], the “decomposition releasing the alkyl or PEG chain” value was “decomposition reaction was observed”.
On to `COCCOCCOCCOCCOCCOCCOCCOCCOCCOCCOCCOCCOCCOCCOCCOCCOCCOCCOCCOCCOCCOCCOCCOCCNC(=O)CCC(=O)N[C@@H](CCCNC(=N)N)C(=O)NCCN1CCC(NC(=O)C(=O)Nc2ccc(Cl)cc2)CC12CCCCC2` (stereo partly drawn) [TKB-003], for which the IC50 with HIV isolate (KP5mvcR) (setting [6]) is less than 0.1 µM. In the series on TZM-bl cells, this compound returned a CC50 of 40 ± 14 µM.
Consider `O=C1Nc2ccc(Cl)cc2[C@@](C#CC2CC2)(C(F)(F)F)O1` [EFV, efavirenz, reference compound], for which the “SI (selectivity index)” value in the series with HIV isolate (KP5mvcR) is listed as 6,829. In the series with HIV isolate (KP5mvcR) (setting [5]), the IC50 stood at 0.0041 ± 0.00099 µM. For the same compound, the CC50 at 48 h in series [1] (TZM-bl cells, cultured for 48 hours, read-out: CC50) came to 28 ± 3.4 µM.
For `COCCOCCOCCOCCOCCOCCOCCOCCOCCOCCOCCOCCNC(=O)CCC(=O)N[C@@H](CCCNC(=N)N)C(=O)NCCN1CCC(NC(=O)C(=O)Nc2ccc(Cl)cc2)CC12CCCCC2` (stereo partly drawn) [TKB-002, N^1-((2S)-1-((2-(4-(2-((4-chlorophenyl)amino)-2-oxoacetamido)-1-azaspiro[5.5]undecan-1-yl)ethyl)amino)-5-guanidino-1-oxopentane-2-yl)-N^4-(2,5,8,11,14,17,20,23,26,29,32,35-dodecaoxaheptatriacontan-37-yl)succinamide], the “SI (selectivity index)” value with HIV isolate (KP5mvcR) is listed as >1,000. For the same compound, in the series with HIV isolate (KP5mvcR) (setting [5]), the IC50 is less than 0.1 µM. Further, the “stability in the presence of human liver microsomes (HPLC peak intensity)” value in series [3] is given as “the intensity of the peak was the same as before incubation; also recorded: stable even in the presence of human liver microsomes”. For the same compound, in series [1], the CC50 at 48 h is more than 100 µM. The “blood half-life relative to YIR-821” value in series [4] (Macaque monkey, intravenous injection) is given as 3.48 times. The compound also returned a half-life in series [4] (blood, 23.4 μmol, Macaque monkey MM616, intravenous injection) of 1.8 h.
For `CC1(C)CC(NC(=O)C(=O)Nc2ccc(Cl)cc2)CC(C)(C)N1` [NBD-556, reference compound], the IC50 with HIV isolate (KP5mvcR) (setting [6]) was 0.27 ± 0.052 µM. In the series with TZM-bl cells, this compound had a CC50 of 177 ± 9.5 µM.

As usually defined, the IC50 is the concentration at which inhibition is half-maximal. As a reminder, the CC50 is the concentration giving 50% cytotoxicity. As a reminder, the half-life is how long it takes for the measured level to halve.
